{"source": "patent US20260027096A1", "about": "“PHD INHIBITORS” (Oxford University Innovation Limited, priority 2023, published 2026)", "key": {"[1]": {"system": "mouse iMLL-AF9- and Meis1Hoxa9-transformed AML cells", "experiment": "Proliferation and apoptosis of murine iMLL-AF9 and Meis1Hoxa9 AML cells", "assay_type": "cell-based", "settings": "50 μM", "text": "(§1) Viable cells were counted by trypan blue exclusion at the indicated time points. To analyse cells undergoing apoptosis, cells were suspended in binding buffer containing PE-conjugated Annexin-V or FITC-conjugated Annexin-V, and either PI or DAPI.\n(§2) To determine consequences of Daprodustat (2) and IOX5 (68, example 46) treatment on AML cells driven by the MLL-AF9→MEIS1/HOXA9 axis, mouse iMLL-AF9-and Meis1Hoxa9-transformed AML cells were employed, as well as human THP-1 cells, which harbour the MIL-AF9 translocation. […] Thus, providing compelling evidence that PHD inhibition compromises AML cells driven by the MLL-AF9→MEIS1/HOXA9 axis."}, "[2]": {"system": "human THP-1 cells", "experiment": "Proliferation and apoptosis of THP-1 cells", "assay_type": "cell-based", "settings": "THP-1, 50 μM", "text": "as §1, §2"}, "[3]": {"system": "murine AML cells harbouring FLT3-ITD mutations (with and without NPM1 mutations), PML-RARα and AML1-ETO", "experiment": "Proliferation and apoptosis of murine AML cells with other drivers", "assay_type": "cell-based, mouse", "text": "as §1\nTo validate the anti-leukaemic effect of PHD inhibition on AML cells transformed by drivers independent from the MLL/Meis1/Hoxa9 axis, murine AML cells harbouring FLT3-ITD mutations were employed (with and without NPM1 mutations), PML-RARα and AML1-ETO."}, "[4]": {"system": "K562, OCI-AML3, KASUMI1, MV-4-11 and MOLM13 cells", "experiment": "Proliferation and apoptosis of human leukaemic cell lines", "assay_type": "cell-based", "settings": "50 μM", "text": "as §1\nTo examine the impact of PHD inhibition in human leukaemia cells with other mutational backgrounds, different myeloid leukaemia cells were used, namely K562 (CML, with BCR-ABL translocation), OCL-AML3 cells (AML with DNMT3A, NRAS and NPM1 mutations), KASUMI1 cells (AML with AML-ETO translocation), MV-4-11 (AML with FLT3-ITD mutation), and MOLM13 (AML with FLT3-ITD mutation and MLL-AF9 translocation). […] Thus, multiple potent PHD inhibitors, with distinct mode of action, compromise leukaemic cells independently from their mutational status."}, "[5]": {"system": "BNIP3 mRNA in human AML cells", "experiment": "qPCR of BNIP3 (BAX, BAK) in human AML cells", "assay_type": "cell-based", "settings": "for BNIP3 mRNA expression: MOLM13, OCI-AML3, MV411 and THP-1 cells; for BNIP3, BAX and BAK transcripts (qPCR): MOLM-13 cells, 50 μM", "description": "RNA was isolated using Direct-zol RNA Miniprep kit (Zymo Research, #R2051) and reverse transcribed using High-Capacity cDNA Reverse Transcription Kit (Applied Biosystems). For real-time quantitative PCR (qPCR), 5 ng of cDNA, 5 μL of PowerUp SYBR Green MasterMix (Applied Biosystems) and 2 pmol of primers were used per well of 384-well plate. Reactions were performed in triplicate using C1000 Thermocycler 384well (BioRad). Gene expression was quantified using comparative AA-Ct method and ACTB was used as the housekeeping gene. Data is expressed as log 2 fold change in comparison to control sample and represents results of three independent experiments measured in duplicate.\nGiven that the primary function of PHD2 is to promote HIF-α degradation, HIF-1α levels were measured following the treatment of AML cells with PHD inhibitors. […] To investigate whether HIF-α mediates the anti-leukaemic effects of PHD inhibition, Meis1/Hoxa9-transformed AML cells lacking both Hif1α and Hif2α and control cells were employed (Vukovic et al., 2015). […] Next, to investigate a molecular mechanism behind the anti-leukaemic effect of PHD inhibition, HIF-dependent transcripts that were dysregulated were interrogated via (68, example 46)-treatment in murine cells."}, "[6]": {"system": "THP-1 cells in NBSGW recipient mice", "experiment": "THP-1 xenotransplantation in NBSGW mice", "assay_type": "in vivo", "settings": "30 mg/kg i.p. twice daily for 21 days", "text": "(A) 100,000 THP-1 cells were transplanted into NBSGW recipient mice. […] (B-C) Percentage of human CD45+CD33+ and human CD45+CD14+ cells in the BM and spleen, respectively (n=4-5). (D) 100,000 OCI-AML3 cells were transplanted into NBSGW recipient mice. […] (E) Percentage of human CD45+CD33+CD14+ cells in the liver, BM and PB, respectively (n=3-7). (F) 2,000 LSK cells from iMLL-AF9;Control mice were sorted and transplanted into irradiated recipient mice. […] (H) LDA in secondary recipients transplanted with indicated doses of CD45.2+BM cells from primary recipients (n=9-10 per dose). (I) Plot showing Poisson statistical analysis. Circles represent the percentages of negative mice for each cell dose, triangles represent any data values with zero negative responses. Solid lines indicate the best-fit linear model, and dotted lines represent 95% CIs. LSC frequencies were calculated using the ELDA software 121. (J) Steady-state analyses of 8-to 10-week-old C57B16 mice treated with IOX5 or vehicle control 2× daily via i.p. injection for 14 days (n=5-7). (K) PB counts (n=6). (L) Total BM cellularity (n=5-9). (M) Total numbers of HSC, MPP, HPC-1 and HPC-2 populations (n=5-7). Data represent mean±SEM; * p<0.05; ** p<0.01; *** p<0.001; **** p<0.0001.\n100,000 THP-1 cells, 100,000 OCI-AM3 cells or 100,000 MV411 cells (for combination experiments) were tail vein injected into non-irradiated 10-to 12-week-old mixed gender NBSGW mice and began drug treatment 14 days after transplantation. […] Mice were culled 5 weeks after transplantation.\nNext, it was examined whether IOX (68, example 46)5 has a therapeutic impact on MLL-AF9-independent AML. […] Therefore, IOX5 (68, example 46) compromises both MLL-rearranged and non-MLL AML in vivo."}}}
{"smiles": "O=C(O)CNC(=O)c1c(O)n(C2CCCCC2)c(=O)n(C2CCCCC2)c1=O", "note": "[Daprodustat, daprodustat, reference compound]", "values": [{"measurement": "apoptosis", "setting": "[1]", "result": "induced their apoptosis"}, {"measurement": "proliferation", "setting": "[1]", "result": "compromised their proliferative capacity"}, {"measurement": "apoptosis", "setting": "[2]", "result": "induced their apoptosis"}, {"measurement": "proliferation", "setting": "[2]", "result": "compromised their proliferative capacity"}, {"measurement": "apoptosis (Annexin-V+DAPI+)", "setting": "[3]", "result": "induced apoptosis"}, {"measurement": "proliferation", "setting": "[3]", "result": "reduced the proliferative rate"}, {"measurement": "apoptosis", "setting": "[4]", "result": "induced their apoptosis"}, {"measurement": "proliferation", "setting": "[4]", "result": "consistently compromised the proliferation"}, {"measurement": "BNIP3 mRNA expression", "setting": "[5]", "result": "strongly induced BNIP3 expression"}, {"measurement": "BNIP3, BAX and BAK transcripts (qPCR)", "setting": "[5]", "result": "upregulation of BNIP3 was found, as well as its downstream effectors BAX and BAK"}, {"measurement": "leukaemic burden", "setting": "[6]", "result": "significantly reduced leukaemic burden"}, {"measurement": "tolerability of treatment", "setting": "[6]", "result": "well tolerated"}]}
{"smiles": "O=C(NCC1CCC(C(F)(F)F)CC1)c1c[nH]c(-n2cccn2)cc1=O", "note": "(centres unmarked) [IOX5]", "values": [{"measurement": "apoptosis", "setting": "[1]", "result": "induced their apoptosis"}, {"measurement": "proliferation", "setting": "[1]", "result": "compromised their proliferative capacity"}, {"measurement": "apoptosis", "setting": "[2]", "result": "induced their apoptosis"}, {"measurement": "proliferation", "setting": "[2]", "result": "compromised their proliferative capacity"}, {"measurement": "apoptosis (Annexin-V+DAPI+)", "setting": "[3]", "result": "induced apoptosis"}, {"measurement": "proliferation", "setting": "[3]", "result": "reduced the proliferative rate"}, {"measurement": "apoptosis", "setting": "[4]", "result": "induced their apoptosis"}, {"measurement": "proliferation", "setting": "[4]", "result": "consistently compromised the proliferation"}, {"measurement": "BNIP3 mRNA expression", "setting": "[5]", "result": "strongly induced BNIP3 expression"}, {"measurement": "BNIP3, BAX and BAK transcripts (qPCR)", "setting": "[5]", "result": "upregulation of BNIP3 was found, as well as its downstream effectors BAX and BAK"}, {"measurement": "leukaemic burden", "setting": "[6]", "result": "significantly reduced leukaemic burden"}]}
